Assay [1] deals with Neuronal acetylcholine receptor. Put plainly: Binding affinity against nicotinic acetylcholine receptor using [3H]epibatidine as radioligand in rat brain tissue. It is filed as tissue-based.
In assay [2] the target is T1, Neuronal acetylcholine receptor; alpha3/beta4 (Homo sapiens, UniProt P30926+P32297). Put plainly: Agonistic potency against nicotinic acetylcholine receptor alpha3-beta4. In kind it is functional.
Assay [3] has as its target T1, Neuronal acetylcholine receptor; alpha3/beta4. The experiment in a line: Binding affinity against nicotinic acetylcholine receptor alpha3-beta4 using [3H]epibatidine as radioligand expressed in HEK293 cells or tsA cells. It is filed as cell-based.
Assay [4] addresses Neuronal acetylcholine receptor; alpha4/beta4 (Homo sapiens, UniProt P30926+P43681). Put plainly: Binding affinity against nicotinic acetylcholine receptor alpha4-beta4 using [3H]epibatidine as radioligand expressed in HEK293 cells or tsA cells. It is filed as cell-based.
For assay [5], the target named is Neuronal acetylcholine receptor; alpha4/beta2 (Homo sapiens, UniProt P17787+P43681). Put plainly: Binding affinity against nicotinic acetylcholine receptor alpha4-beta2 using [3H]epibatidine as radioligand expressed in HEK293 cells or tsA cells. It is filed as cell-based.
Chain of Neuronal acetylcholine receptor; alpha4/beta2 (P17787 whole entry): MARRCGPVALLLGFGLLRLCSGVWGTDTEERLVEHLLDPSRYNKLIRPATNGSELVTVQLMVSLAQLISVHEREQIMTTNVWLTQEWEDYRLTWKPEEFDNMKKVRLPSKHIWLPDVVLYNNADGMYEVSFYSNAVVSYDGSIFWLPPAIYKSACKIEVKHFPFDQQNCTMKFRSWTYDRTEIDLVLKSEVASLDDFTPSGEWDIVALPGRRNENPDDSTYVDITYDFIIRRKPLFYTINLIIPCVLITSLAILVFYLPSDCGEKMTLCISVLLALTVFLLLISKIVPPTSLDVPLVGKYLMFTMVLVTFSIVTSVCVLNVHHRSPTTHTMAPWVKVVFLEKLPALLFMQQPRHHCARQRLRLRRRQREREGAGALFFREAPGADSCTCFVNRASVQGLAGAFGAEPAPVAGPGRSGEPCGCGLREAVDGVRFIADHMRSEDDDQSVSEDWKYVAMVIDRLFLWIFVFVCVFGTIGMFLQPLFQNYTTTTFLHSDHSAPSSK
Chain of Neuronal acetylcholine receptor; alpha4/beta2 (P43681 whole entry): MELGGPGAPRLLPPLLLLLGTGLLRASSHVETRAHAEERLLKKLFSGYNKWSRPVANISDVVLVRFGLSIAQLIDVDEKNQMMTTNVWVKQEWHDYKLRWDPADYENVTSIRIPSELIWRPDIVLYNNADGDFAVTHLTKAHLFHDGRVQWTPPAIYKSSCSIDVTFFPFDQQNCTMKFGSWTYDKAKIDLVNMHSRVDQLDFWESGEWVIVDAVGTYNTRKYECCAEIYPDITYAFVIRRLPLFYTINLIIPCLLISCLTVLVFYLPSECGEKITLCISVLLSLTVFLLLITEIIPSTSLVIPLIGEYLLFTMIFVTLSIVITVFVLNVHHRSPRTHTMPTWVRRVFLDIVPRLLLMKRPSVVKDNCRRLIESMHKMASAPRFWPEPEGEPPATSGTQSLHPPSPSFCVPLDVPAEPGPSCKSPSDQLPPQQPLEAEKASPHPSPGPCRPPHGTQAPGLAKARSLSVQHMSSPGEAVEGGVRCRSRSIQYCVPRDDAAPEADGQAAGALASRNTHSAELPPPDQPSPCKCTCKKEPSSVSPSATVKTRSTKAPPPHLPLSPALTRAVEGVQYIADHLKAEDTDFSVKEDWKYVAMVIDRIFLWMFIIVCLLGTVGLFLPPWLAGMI
Assay [6] addresses Neuronal acetylcholine receptor; alpha2/beta4 (Homo sapiens, UniProt P30926+Q15822). Put plainly: Binding affinity against nicotinic acetylcholine receptor alpha2-beta4 using [3H]epibatidine as radioligand expressed in HEK293 cells or tsA cells. It is filed as cell-based.

What is called Ki is the equilibrium dissociation constant of an inhibitor or competing ligand from its target. Low readings indicate higher affinity, high ones lower affinity. The term EC50 denotes the midpoint of the concentration-response curve. Lower therefore signals higher potency in that assay.

Chain of Neuronal acetylcholine receptor; alpha2/beta4 (P30926 whole entry): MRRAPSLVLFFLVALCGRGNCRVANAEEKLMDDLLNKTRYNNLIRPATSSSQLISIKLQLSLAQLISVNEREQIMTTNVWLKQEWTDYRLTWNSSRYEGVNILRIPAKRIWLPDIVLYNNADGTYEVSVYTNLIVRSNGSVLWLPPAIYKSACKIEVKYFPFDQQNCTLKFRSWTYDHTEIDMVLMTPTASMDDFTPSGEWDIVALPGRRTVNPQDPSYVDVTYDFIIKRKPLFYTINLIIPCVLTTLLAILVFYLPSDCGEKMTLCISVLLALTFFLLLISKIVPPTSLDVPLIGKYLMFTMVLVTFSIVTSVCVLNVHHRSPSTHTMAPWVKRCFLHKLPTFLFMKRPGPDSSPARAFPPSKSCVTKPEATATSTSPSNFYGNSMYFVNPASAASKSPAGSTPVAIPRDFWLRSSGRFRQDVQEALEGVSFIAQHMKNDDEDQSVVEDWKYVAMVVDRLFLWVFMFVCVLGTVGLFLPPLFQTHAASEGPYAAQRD
Chain of Neuronal acetylcholine receptor; alpha2/beta4 (Q15822 whole entry): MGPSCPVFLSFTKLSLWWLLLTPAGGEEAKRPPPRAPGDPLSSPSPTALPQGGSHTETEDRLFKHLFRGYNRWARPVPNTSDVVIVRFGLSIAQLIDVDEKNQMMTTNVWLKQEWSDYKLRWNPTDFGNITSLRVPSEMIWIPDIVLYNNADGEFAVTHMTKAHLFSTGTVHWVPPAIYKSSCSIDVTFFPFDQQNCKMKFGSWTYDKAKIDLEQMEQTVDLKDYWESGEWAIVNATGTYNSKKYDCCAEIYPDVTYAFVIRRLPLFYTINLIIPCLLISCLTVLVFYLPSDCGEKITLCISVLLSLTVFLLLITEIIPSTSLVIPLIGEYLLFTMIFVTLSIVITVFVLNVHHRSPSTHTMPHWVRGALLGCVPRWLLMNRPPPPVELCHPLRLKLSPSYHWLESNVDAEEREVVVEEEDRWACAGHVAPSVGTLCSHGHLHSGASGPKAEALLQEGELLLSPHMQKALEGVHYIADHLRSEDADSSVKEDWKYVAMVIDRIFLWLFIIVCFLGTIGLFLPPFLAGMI
T1 sequence (P30926 whole entry): as the sequence (P30926 whole entry) above
T1 sequence (P32297 whole entry): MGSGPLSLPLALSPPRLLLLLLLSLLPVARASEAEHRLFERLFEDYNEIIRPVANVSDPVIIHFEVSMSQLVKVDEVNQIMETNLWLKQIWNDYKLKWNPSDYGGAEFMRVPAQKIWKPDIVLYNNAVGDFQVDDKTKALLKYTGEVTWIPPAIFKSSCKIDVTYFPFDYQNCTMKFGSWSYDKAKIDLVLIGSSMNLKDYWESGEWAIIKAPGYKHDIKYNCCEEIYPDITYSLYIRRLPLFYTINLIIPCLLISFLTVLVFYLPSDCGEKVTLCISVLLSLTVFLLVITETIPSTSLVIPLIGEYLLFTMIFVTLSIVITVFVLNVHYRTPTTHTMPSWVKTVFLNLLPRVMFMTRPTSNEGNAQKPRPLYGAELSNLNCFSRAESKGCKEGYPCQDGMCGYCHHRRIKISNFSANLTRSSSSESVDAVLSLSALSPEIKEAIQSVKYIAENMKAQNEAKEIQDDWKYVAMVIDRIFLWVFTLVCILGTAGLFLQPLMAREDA
Chain of Neuronal acetylcholine receptor; alpha4/beta4 (P30926 whole entry): as the sequence (P30926 whole entry) above
Chain of Neuronal acetylcholine receptor; alpha4/beta4 (P43681 whole entry): as the sequence (P43681 whole entry) above

Take `OC1CC2CC(c3ccc(Cl)nc3)C(C1)N2` (stereo not drawn): the Ki came to 18 nM in assay [1]; 88 nM in assay [3]; 38 nM in assay [4]; 7.4 nM in assay [5]; 31 nM in assay [6]. This compound displayed an EC50 in assay [2] of 2100 nM.

In turn, `Clc1ccc(C2CC3CCC2N3)cn1` (stereo not drawn) [EPIBATIDINE] had a Ki in assay [6] of 0.091 nM.

Compound `CN1CCC[C@H]1c1cccnc1` [NICOTINE] showed a Ki in assay [6] of 103 nM.
